{
  "source": "ChEMBL document CHEMBL5154863",
  "about": "“Design and synthesis of quinolinium-based derivatives targeting FtsZ for antibacterial evaluation and mechanistic study” (Eur J Med Chem, 2022)",
  "key": {"[1]": {"target": "T1, Cell division protein FtsZ (Staphylococcus aureus, UniProt P0A031)", "T1 sequence (P0A031 whole entry)": "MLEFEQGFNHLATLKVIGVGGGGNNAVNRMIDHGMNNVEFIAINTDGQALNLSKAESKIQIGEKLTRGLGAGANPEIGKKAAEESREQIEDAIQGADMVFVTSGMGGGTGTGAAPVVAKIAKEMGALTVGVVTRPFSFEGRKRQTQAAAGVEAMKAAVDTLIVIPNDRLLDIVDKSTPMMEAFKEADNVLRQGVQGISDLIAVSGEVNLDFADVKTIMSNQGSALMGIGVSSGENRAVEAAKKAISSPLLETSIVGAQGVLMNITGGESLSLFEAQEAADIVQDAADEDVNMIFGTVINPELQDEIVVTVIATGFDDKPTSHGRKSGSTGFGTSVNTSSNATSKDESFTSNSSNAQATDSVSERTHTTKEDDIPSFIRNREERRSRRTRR", "assay": "Binding affinity to Staphylococcus aureus FtsZ assessed as dissociation constant by isothermal titration calorimetry"}, "Bacillus subtilis [2]": {"system": "Bacillus subtilis", "assay": "Induction of drug resistance against Bacillus subtilis CMCC (B) 63501 measured after 16 passages", "type": "functional", "settings": "dose <= 64.0 µg/ml, time 30.0 min"}, "Staphylococcus aureus [3]": {"system": "Staphylococcus aureus", "assay": "Bactericidal activity against Staphylococcus aureus ATCC 29213 assessed as inhibition of bacterial growth incubated for 24 hrs by resazurin dye based microtiter plate assay", "type": "functional"}, "Staphylococcus aureus [4]": {"system": "Staphylococcus aureus", "assay": "Antibacterial activity against methicillin-resistant Staphylococcus aureus ATCC BAA41 assessed as fractional inhibitory concentration index incubated for 24 hrs by checker board assay", "type": "functional"}, "Staphylococcus aureus [5]": {"system": "Staphylococcus aureus", "assay": "Antibacterial activity against Staphylococcus aureus ATCC 29213 infected in HK-2 cells assessed as inhibition of bacterial growth incubated for 20 to 24 hrs by broth micro dilution method", "type": "functional", "settings": "time 20-24 hrs"}, "[6]": {"assay": "Cytotoxicity against mouse L929 cells incubated for 48 hrs by MTT assay", "type": "toxicity, cell-based"}, "Enterococcus faecium [7]": {"system": "Enterococcus faecium", "assay": "Antibacterial activity against vancomycin-resistant Enterococcus faecium clinical isolate assessed as inhibition of bacterial growth incubated for 20 to 24 hrs by broth micro dilution method", "type": "functional", "settings": "time 20-24 hrs"}, "[8]": {"target": "T2, Cell division protein FtsZ (Staphylococcus aureus) (UniProt P0A031)", "T2 sequence (whole entry)": "T1 sequence (P0A031 whole entry)", "assay": "Binding affinity to Staphylococcus aureus FtsZ assessed as decrease in random coil structure at 8 ug/ml incubated for 30 mins by circular dichroism method (reference value: 34.5 %)", "set-up": "scale not given: the % may be the effect or the level left", "settings": "dose 8.0 µg/ml"}, "Staphylococcus aureus [9]": {"system": "Staphylococcus aureus", "assay": "Bactericidal activity against Staphylococcus aureus ATCC 43300 assessed as inhibition of bacterial growth incubated for 24 hrs by resazurin dye based microtiter plate assay", "type": "functional"}, "Enterococcus faecalis": {"system": "Enterococcus faecalis", "assay": "Antibacterial activity against Enterococcus faecalis ATCC 29212 assessed as inhibition of bacterial growth incubated for 20 to 24 hrs by broth micro dilution method", "type": "functional", "settings": "time 20-24 hrs"}, "Staphylococcus aureus [10]": {"system": "Staphylococcus aureus", "assay": "Synergistic antibacterial activity against methicillin-resistant Staphylococcus aureus ATCC BAA41 assessed as inhibition of bacterial growth incubated for 24 hrs in presence of methicillin by checker board assay", "type": "functional"}, "[11]": {"target": "T2, Cell division protein FtsZ (Staphylococcus aureus)", "assay": "Induction of Staphylococcus aureus FtsZ polymerization expressed in Escherichia coli BL21 (DE3) assessed as increase in absorbance at 2 to 8 ug/ml by microplate reader method", "settings": "dose 2-8 µg/ml"}, "Escherichia coli [12]": {"system": "Escherichia coli", "assay": "Antibacterial activity against Escherichia coli ATCC 8739 assessed as inhibition of bacterial growth incubated for 20 to 24 hrs by broth micro dilution method", "type": "functional", "settings": "time 20-24 hrs"}, "Escherichia coli [13]": {"system": "Escherichia coli", "assay": "Antibacterial activity against Escherichia coli ATCC 25922 assessed as inhibition of bacterial growth incubated for 20 to 24 hrs by broth micro dilution method", "type": "functional", "settings": "time 20-24 hrs"}, "[14]": {"system": "Staphylococcus epidermidis", "assay": "Antibacterial activity against Staphylococcus epidermidis ATCC 12228 assessed as inhibition of bacterial growth incubated for 20 to 24 hrs by broth micro dilution method", "type": "functional", "settings": "time 20-24 hrs"}, "[15]": {"assay": "Ratio of MBC for bactericidal activity against Bacillus subtilis CMCC (B) 63501 to MIC for antibacterial activity against Bacillus subtilis CMCC (B) 63501", "type": "functional"}, "Staphylococcus aureus [16]": {"system": "Staphylococcus aureus", "assay": "Antibacterial activity against Staphylococcus aureus ATCC 29213 infected in L929 cells assessed as inhibition of bacterial growth incubated for 20 to 24 hrs by broth micro dilution method", "type": "functional", "settings": "time 20-24 hrs"}, "Staphylococcus aureus [17]": {"system": "Staphylococcus aureus", "assay": "Antibacterial activity against methicillin-resistant Staphylococcus aureus ATCC 43300 assessed as inhibition of bacterial growth incubated for 20 to 24 hrs by broth micro dilution method", "type": "functional", "settings": "time 20-24 hrs"}, "[18]": {"assay": "Ratio of MBC for bactericidal activity against Staphylococcus aureus ATCC 29213 to MIC for antibacterial activity against Staphylococcus aureus ATCC 29213", "type": "functional"}, "Staphylococcus aureus [19]": {"system": "Staphylococcus aureus", "assay": "Antibacterial activity against methicillin-resistant Staphylococcus aureus ATCC BAA-1720 assessed as inhibition of bacterial growth incubated for 20 to 24 hrs by broth micro dilution method", "type": "functional", "settings": "time 20-24 hrs"}, "Pseudomonas aeruginosa": {"system": "Pseudomonas aeruginosa", "assay": "Antibacterial activity against […] Pseudomonas aeruginosa ATCC 27853 assessed as inhibition of bacterial growth incubated for 20 to 24 hrs by broth micro dilution method", "type": "functional", "settings": "time 20-24 hrs"}, "Enterococcus faecium [20]": {"system": "Enterococcus faecium", "assay": "Antibacterial activity against Enterococcus faecium ATCC 49624 assessed as inhibition of bacterial growth incubated for 20 to 24 hrs by broth micro dilution method", "type": "functional", "settings": "time 20-24 hrs"}, "Staphylococcus aureus [21]": {"system": "Staphylococcus aureus", "assay": "Antibacterial activity against vancomycin-intermediate Staphylococcus aureus Mu50 assessed as inhibition of bacterial growth incubated for 20 to 24 hrs by broth micro dilution method", "type": "functional", "settings": "time 20-24 hrs"}, "[22]": {"assay": "Ratio of MBC for bactericidal activity against Enterococcus faecium ATCC 700221 to MIC for antibacterial activity against Enterococcus faecium ATCC 700221", "type": "functional"}, "Staphylococcus aureus [23]": {"system": "Staphylococcus aureus", "assay": "Antibacterial activity against methicillin-resistant Staphylococcus aureus ATCC 33592 assessed as inhibition of bacterial growth incubated for 20 to 24 hrs by broth micro dilution method", "type": "functional", "settings": "time 20-24 hrs"}, "[24]": {"target": "T2, Cell division protein FtsZ (Staphylococcus aureus)", "assay": "Binding affinity to Staphylococcus aureus FtsZ assessed as decrease in other structure at 8 ug/ml for 30 mins by circular dichroism method (reference value: 34.5 %)", "set-up": "scale not given: the % may be the effect or the level left", "settings": "dose 8.0 µg/ml"}, "[25]": {"assay": "Ratio of MBC for bactericidal activity against Staphylococcus aureus ATCC 43300 to MIC for antibacterial activity against Staphylococcus aureus ATCC 43300", "type": "functional"}, "Enterococcus faecium [26]": {"system": "Enterococcus faecium", "assay": "Bactericidal activity against Enterococcus faecium ATCC 700221 assessed as inhibition of bacterial growth incubated for 24 hrs by resazurin dye based microtiter plate assay", "type": "functional"}, "[27]": {"assay": "Cytotoxicity against human HK-2 cells incubated for 48 hrs by MTT assay", "type": "toxicity, cell-based"}, "[28]": {"target": "T2, Cell division protein FtsZ (Staphylococcus aureus)", "assay": "Binding affinity to Staphylococcus aureus FtsZ assessed as increase in alpha helix structure at 8 ug/ml incubated for 30 mins by circular dichroism method (reference value: 30.5 %)", "settings": "dose 8.0 µg/ml"}, "Staphylococcus aureus [29]": {"system": "Staphylococcus aureus", "assay": "Antibacterial activity against Staphylococcus aureus ATCC 29213 assessed as assessed as reduction in viable bacterial count upto 8 times MIC measured after 8 hrs by time-kill kinetics assay", "type": "functional"}, "Staphylococcus aureus [30]": {"system": "Staphylococcus aureus", "assay": "Antibacterial activity against methicillin-resistant Staphylococcus aureus ATCC BAA41 assessed as inhibition of bacterial growth incubated for 24 hrs by checker board assay", "type": "functional"}, "Escherichia coli [31]": {"system": "Escherichia coli", "assay": "Antibacterial activity against NDM-1 expressing Escherichia coli ATCC BAA2469 assessed as inhibition of bacterial growth incubated for 20 to 24 hrs by broth micro dilution method", "type": "functional", "settings": "time 20-24 hrs"}, "Bacillus subtilis [32]": {"system": "Bacillus subtilis", "assay": "Antibacterial activity against Bacillus subtilis CMCC (B) 63501 assessed as inhibition of bacterial growth incubated for 20 to 24 hrs by broth micro dilution method", "type": "functional", "settings": "time 20-24 hrs"}, "Staphylococcus aureus [33]": {"system": "Staphylococcus aureus", "assay": "Antibacterial activity against Staphylococcus aureus ATCC 29213 assessed as inhibition of bacterial growth incubated for 20 to 24 hrs by broth micro dilution method", "type": "functional", "settings": "time 20-24 hrs"}},
  "note": "Calls of active or inactive are those of the source. No cut-off for these calls is given here.",
  "data": [
    {"molecule": "CC1CCN(c2cc(/C=C/c3ccc(N(C)C)cc3)[n+](C)c3ccccc23)CC1.[I-]", "values": [
      {"measurement": "Kd", "setting": "[1]", "value": 3.84, "unit": "µM"},
      {"measurement": "Activity", "setting": "Bacillus subtilis [2]", "value": "Active"},
      {"measurement": "MBC", "setting": "Staphylococcus aureus [3]", "value": 8, "unit": "µg/mL"},
      {"measurement": "fractional inhibitory concentration index (FICI)", "setting": "Staphylococcus aureus [4]", "value": 0.3125},
      {"measurement": "MIC", "setting": "Staphylococcus aureus [5]", "value": 1, "unit": "µg/mL"},
      {"measurement": "IC50 at 48 h", "setting": "[6]", "value": 12.8, "unit": "µg/mL"},
      {"measurement": "MIC", "setting": "Enterococcus faecium [7]", "value": 4, "unit": "µg/mL"},
      {"measurement": "Activity", "setting": "[8]", "value": 28.4, "unit": "%"},
      {"measurement": "MBC", "setting": "Staphylococcus aureus [9]", "value": 8, "unit": "µg/mL"},
      {"measurement": "MIC", "setting": "Enterococcus faecalis", "value": 2, "unit": "µg/mL"},
      {"measurement": "MIC", "setting": "Staphylococcus aureus [10]", "value": 2, "unit": "µg/mL"},
      {"measurement": "Activity", "setting": "[11]", "value": "Active"},
      {"measurement": "MIC", "setting": "Escherichia coli [12]", "value": 64, "unit": "µg/mL"},
      {"measurement": "MIC", "setting": "Escherichia coli [13]", "value": 8, "unit": "µg/mL"},
      {"measurement": "MIC", "setting": "[14]", "value": 0.25, "unit": "µg/mL"},
      {"measurement": "Ratio", "setting": "[15]", "value": 1},
      {"measurement": "MIC", "setting": "Staphylococcus aureus [16]", "value": 1, "unit": "µg/mL"},
      {"measurement": "MIC", "setting": "Staphylococcus aureus [17]", "value": 1, "unit": "µg/mL"},
      {"measurement": "Ratio", "setting": "[18]", "value": ">4"},
      {"measurement": "MIC", "setting": "Staphylococcus aureus [19]", "value": 1, "unit": "µg/mL"},
      {"measurement": "MIC", "setting": "Pseudomonas aeruginosa", "value": "> 64", "unit": "µg/mL"},
      {"measurement": "MIC", "setting": "Enterococcus faecium [20]", "value": 8, "unit": "µg/mL"},
      {"measurement": "MIC", "setting": "Staphylococcus aureus [21]", "value": 1, "unit": "µg/mL"},
      {"measurement": "Ratio", "setting": "[22]", "value": 4},
      {"measurement": "MIC", "setting": "Staphylococcus aureus [23]", "value": 0.5, "unit": "µg/mL"},
      {"measurement": "Activity", "setting": "[24]", "value": 15.1, "unit": "%"},
      {"measurement": "Ratio", "setting": "[25]", "value": ">4"},
      {"measurement": "MBC", "setting": "Enterococcus faecium [26]", "value": 4, "unit": "µg/mL"},
      {"measurement": "IC50 at 48 h", "setting": "[27]", "value": 9.42, "unit": "µg/mL"},
      {"measurement": "Activity", "setting": "[28]", "value": 41, "unit": "%"},
      {"measurement": "Activity", "setting": "Staphylococcus aureus [29]", "value": 1000, "unit": "CFU/ml"},
      {"measurement": "MIC", "setting": "Staphylococcus aureus [30]", "value": 8, "unit": "µg/mL"},
      {"measurement": "MIC", "setting": "Escherichia coli [31]", "value": 64, "unit": "µg/mL"},
      {"measurement": "MIC", "setting": "Bacillus subtilis [32]", "value": 4, "unit": "µg/mL"},
      {"measurement": "MIC", "setting": "Staphylococcus aureus [33]", "value": 1, "unit": "µg/mL"}
    ]}
  ]
}
